According to PubChem BioAssay AID248 (DTP/NCI, 2004):
Several values for one entry are separate records, joined by “and”; a condition that tells them apart may be missing. Identical values can stand only once. Toxic doses and inconclusive results are not listed. Rule as the data show it: active = T/C of 150% or more; inactive = T/C below 125%.

System: L1210 leukemia ip in BDF1 mice, survival T/C
Assay: NCI In Vivo Anticancer Drug Screen. Data for tumor model L1210 Leukemia (intraperitoneal) in B6D2F1 (BDF1) mice
Settings: endpoint: mean survival time, higher = longer survival
How it was run: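 Each compound was tested against a transplantable tumor grown in mice. The endpoint was survival, with treated animals benchmarked against vehicle controls as a simple ratio.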

[1] = dose: 100.0 mg/kg/injection, schedule: Q04DX003 (ip), vehicle: saline
[2] = dose: 200.0 mg/kg/injection, schedule: Q04DX003 (ip), vehicle: saline
[3] = dose: 400.0 mg/kg/injection, schedule: Q04DX003 (ip), vehicle: saline
[4] = dose: 100.0 mg/kg/injection, schedule: Q01DX001 (ip), vehicle: saline
[5] = dose: 200.0 mg/kg/injection, schedule: Q01DX001 (ip), vehicle: saline
[6] = dose: 400.0 mg/kg/injection, schedule: Q01DX001 (ip), vehicle: saline

Measured: T/C

CCCCCCCCC/C(=N\N=C(N)N)c1ccccc1
inactive: dose: 15.0 mg/kg/injection, schedule: Q01DX Z (ip), vehicle: methylcellulose (MC) 94 % of control | dose: 30.0 mg/kg/injection, schedule: Q01DX Z (ip), vehicle: methylcellulose (MC) 96 % of control | dose: 50.0 mg/kg/injection, schedule: Q01DX Z (oral), vehicle: methylcellulose (MC) 89 % of control | dose: 60.0 mg/kg/injection, schedule: Q01DX Z (ip), vehicle: methylcellulose (MC) 90 % of control | dose: 60.0 mg/kg/injection, schedule: Q01DX Z (oral), vehicle: methylcellulose (MC) 102 % of control | dose: 120.0 mg/kg/injection, schedule: Q01DX Z (ip), vehicle: methylcellulose (MC) 108 % of control | dose: 120.0 mg/kg/injection, schedule: Q01DX Z (oral), vehicle: methylcellulose (MC) 98 % of control | dose: 240.0 mg/kg/injection, schedule: Q01DX Z (ip), vehicle: methylcellulose (MC) 96 % of control | dose: 400.0 mg/kg/injection, schedule: Q01DX Z (oral), vehicle: methylcellulose (MC) 89 % of control | dose: 480.0 mg/kg/injection, schedule: Q01DX Z (ip), vehicle: methylcellulose (MC) 113 % of control | dose: 1000.0 mg/kg/injection, schedule: Q01DX Z (ip), vehicle: methylcellulose (MC) 87 % of control | dose: 1500.0 mg/kg/injection, schedule: Q01DX Z (ip), vehicle: methylcellulose (MC) 100 % of control

CC(C)OC1=CC2C(=CCC3C2(C)C(=O)CC2(C)C(C(C)(O)C(=O)/C=C/C(C)(C)O)C(O)CC32C)C(C)(C)C1=O (configuration not stated)
inactive: dose: 37.5 mg/kg/injection, schedule: Q04DX002 (ip), vehicle: saline with Tween-80 101 % of control | dose: 75.0 mg/kg/injection, schedule: Q04DX002 (ip), vehicle: saline with Tween-80 93 % of control | dose: 150.0 mg/kg/injection, schedule: Q04DX002 (ip), vehicle: saline with Tween-80 108 % of control

CC(C)(Cl)CCC1=C(Cl)C(=O)c2ccccc2C1=O
inactive: dose: 5.0 mg/kg/injection, schedule: Q01DX001 (ip), vehicle: water 98 % of control | dose: 10.0 mg/kg/injection, schedule: Q01DX001 (ip), vehicle: water 98 % of control

CCOC(=O)NCC1(c2ccccc2)CCNCC1
inactive: dose: 20.0 mg/kg/injection, schedule: Q04DX003 (ip), vehicle: Klucel (hydroxypropylcellulose) (HPC) 102 % of control | dose: 40.0 mg/kg/injection, schedule: Q04DX003 (ip), vehicle: Klucel (hydroxypropylcellulose) (HPC) 102 % of control | dose: 80.0 mg/kg/injection, schedule: Q04DX003 (ip), vehicle: Klucel (hydroxypropylcellulose) (HPC) 102 % of control

CC(=O)OCc1cc2cc(O)ccc2nc1C
inactive: [1] 110 % of control | [2] 110 % of control | [3] 116 % of control

CC(=N/NC(N)=S)/C(C)=N/NC(N)=S
inactive: dose: 15.0 mg/kg/injection, schedule: Q01DX Z (ip), vehicle: carboxymethylcellulose (CMC) 97 % of control | dose: 30.0 mg/kg/injection, schedule: Q01DX Z (ip), vehicle: carboxymethylcellulose (CMC) 97 % of control | dose: 50.0 mg/kg/injection, schedule: Q01DX001 (ip), vehicle: carboxymethylcellulose (CMC) 95 % of control | dose: 60.0 mg/kg/injection, schedule: Q01DX Z (ip), vehicle: carboxymethylcellulose (CMC) 101 % of control and 91 % of control | dose: 100.0 mg/kg/injection, schedule: Q01DX001 (ip), vehicle: carboxymethylcellulose (CMC) 87 % of control | [4] 110 % of control | dose: 100.0 mg/kg/injection, schedule: Q01DX009 (ip), vehicle: saline 91 % of control | [1] 98 % of control | dose: 120.0 mg/kg/injection, schedule: Q01DX Z (ip), vehicle: carboxymethylcellulose (CMC) 95 % of control | dose: 200.0 mg/kg/injection, schedule: Q01DX001 (ip), vehicle: carboxymethylcellulose (CMC) 87 % of control | [5] 106 % of control | dose: 200.0 mg/kg/injection, schedule: Q01DX009 (ip), vehicle: saline 88 % of control | [2] 86 % of control | dose: 240.0 mg/kg/injection, schedule: Q01DX Z (ip), vehicle: carboxymethylcellulose (CMC) 93 % of control | dose: 240.0 mg/kg/injection, schedule: Q01DX Z (oral), vehicle: carboxymethylcellulose (CMC) 105 % of control | dose: 400.0 mg/kg/injection, schedule: Q01DX001 (ip), vehicle: carboxymethylcellulose (CMC) 89 % of control | [6] 101 % of control | dose: 400.0 mg/kg/injection, schedule: Q01DX009 (ip), vehicle: saline 93 % of control | [3] 91 % of control | dose: 480.0 mg/kg/injection, schedule: Q01DX Z (ip), vehicle: carboxymethylcellulose (CMC) 87 % of control | dose: 480.0 mg/kg/injection, schedule: Q01DX Z (oral), vehicle: carboxymethylcellulose (CMC) 102 % of control | dose: 960.0 mg/kg/injection, schedule: Q01DX Z (oral), vehicle: carboxymethylcellulose (CMC) 102 % of control | dose: 1920.0 mg/kg/injection, schedule: Q01DX Z (oral), vehicle: carboxymethylcellulose (CMC) 111 % of control

CC/C(C[n+]1ccccc1)=N\Nc1ccc([N+](=O)[O-])cc1[N+](=O)[O-]
inactive: dose: 5.0 mg/kg/injection, schedule: Q01DX001 (ip), vehicle: acetone 102 % of control | dose: 10.0 mg/kg/injection, schedule: Q01DX001 (ip), vehicle: acetone 100 % of control | dose: 20.0 mg/kg/injection, schedule: Q01DX001 (ip), vehicle: acetone 103 % of control | dose: 20.0 mg/kg/injection, schedule: Q04DX003 (ip), vehicle: saline 103 % of control | dose: 40.0 mg/kg/injection, schedule: Q01DX001 (ip), vehicle: acetone 108 % of control | dose: 40.0 mg/kg/injection, schedule: Q04DX003 (ip), vehicle: saline 95 % of control | dose: 80.0 mg/kg/injection, schedule: Q01DX001 (ip), vehicle: acetone 100 % of control

C=CCOC(=O)Nc1cccc(O)c1
inactive: dose: 100.0 mg/kg/injection, schedule: Q04DX002 (ip), vehicle: saline with Tween-80 106 % of control | dose: 200.0 mg/kg/injection, schedule: Q04DX002 (ip), vehicle: saline with Tween-80 110 % of control | dose: 400.0 mg/kg/injection, schedule: Q04DX002 (ip), vehicle: saline with Tween-80 103 % of control

C[C@H]1C[C@@H]2[C@H]([C@@H](O)C[C@@]3(C)[C@H]2CC[C@]3(O)C(=O)CF)[C@@]2(C)C=CC(=O)C=C12
inactive: dose: 62.0 mg/kg/injection, schedule: Q01DX015 (sc), vehicle: steriod suspending solution 97 % of control | dose: 100.0 mg/kg/injection, schedule: Q04DX003 (sc), vehicle: Klucel (hydroxypropylcellulose) (HPC) 101 % of control | dose: 125.0 mg/kg/injection, schedule: Q01DX015 (sc), vehicle: steriod suspending solution 94 % of control | dose: 200.0 mg/kg/injection, schedule: Q04DX003 (sc), vehicle: Klucel (hydroxypropylcellulose) (HPC) 102 % of control | dose: 250.0 mg/kg/injection, schedule: Q01DX015 (sc), vehicle: steriod suspending solution 102 % of control | dose: 400.0 mg/kg/injection, schedule: Q04DX003 (sc), vehicle: Klucel (hydroxypropylcellulose) (HPC) 115 % of control | dose: 500.0 mg/kg/injection, schedule: Q01DX015 (sc), vehicle: steriod suspending solution 102 % of control

Cc1ccc(CS(=O)C(Cl)(Cl)c2ccc(C)cc2)cc1 (configuration not stated)
inactive: dose: 100.0 mg/kg/injection, schedule: Q04DX002 (ip), vehicle: Klucel (hydroxypropylcellulose) (HPC) 97 % of control | dose: 200.0 mg/kg/injection, schedule: Q04DX002 (ip), vehicle: Klucel (hydroxypropylcellulose) (HPC) 94 % of control | dose: 400.0 mg/kg/injection, schedule: Q04DX002 (ip), vehicle: Klucel (hydroxypropylcellulose) (HPC) 97 % of control

CN(N(P(c1ccccc1)c1ccccc1)P(c1ccccc1)c1ccccc1)P(c1ccccc1)c1ccccc1
inactive: dose: 100.0 mg/kg/injection, schedule: Q01DX001 (ip), vehicle: steriod suspending solution 110 % of control | dose: 400.0 mg/kg/injection, schedule: Q01DX001 (ip), vehicle: steriod suspending solution 94 % of control

O=C(c1ccccc1)c1ccc(Cl)c([N+](=O)[O-])c1
inactive: dose: 50.0 mg/kg/injection, schedule: Q01DX001 (ip), vehicle: saline 103 % of control | [4] 100 % of control | [5] 91 % of control | [6] 97 % of control
